Test results as given in article PMC6150365, “Simultaneous Determination of Seven Components in Rat Plasma by the UPLC-MS/MS Method and Application of Pharmacokinetic Studies to SimiaoYong’an Decoction” (Molecules : A Journal of Synthetic Chemistry and Natural …, 2017).

Assay: Pharmacokinetic study in rats after oral administration of SYD extract and its single and combined TCM extracts (UPLC-MS/MS of plasma)
Details: for MRT last: MRT(0–t); for MRT inf: MRT(0–∞); for half-life: t1/2, rat plasma
[1] = male, Sprague-Dawley, rat, plasma, po, 0.68 g/kg, rat plasma, oral GU extract 0.68 g/kg, n = 6
[2] = male, Sprague-Dawley, rat, plasma, po, 2.14 g·kg^−1 (extract), rat plasma, oral LJ + GU extract, n = 6
[3] = male, Sprague-Dawley, rat, plasma, po, 2.43 g/kg, rat plasma, oral AS + GU extract 2.43 g/kg, n = 6
[4] = male, Sprague-Dawley, rat, plasma, po, 3.38 g/kg extract (6.67 g/kg as herbs), rat plasma, oral SN + GU extract, n = 6
[5] = male, Sprague-Dawley, rat, plasma, po, 4.01 g·kg^−1 (extract), rat plasma, oral LJ + AS + GU extract, n = 6
[6] = male, Sprague-Dawley, rat, plasma, po, 4.73 g/kg, rat plasma, oral LJ + SN + GU extract 4.73 g/kg, n = 6
[7] = male, Sprague-Dawley, rat, plasma, po, 8.25 g/kg, rat plasma, oral SYD extract 8.25 g/kg, n = 6

Q: Which AUC(0-t) [1] does the source give for O=C1C[C@@H](c2ccc(O[C@@H]3O[C@H](CO)[C@@H](O)[C@H](O)[C@H]3O)cc2)Oc2cc(O)ccc21 [Liquiritin, liquiritin] here?
A: Its AUC(0-t) is 190 ng·h/mL.

Q: And the AUC(0-inf) (male, Sprague-Dawley, rat, plasma, po, 0.68 g/kg, AUC(0–∞), rat plasma, oral GU extract 0.68 g/kg, n = 6)?
A: The AUC(0-inf) was 190 ng·h/mL.

Q: And the Cmax (male, Sprague-Dawley, rat, plasma, po, 0.68 g/kg, Cmax, rat plasma, oral GU extract 0.68 g/kg, n = 6)?
A: The Cmax was 270 ng/mL.

Q: What about the MRT last [1] of the same compound?
A: The MRT last was 1.16 ± 0.01 h.

Q: What about the MRT inf [1] of the same compound?
A: Its MRT inf is 1.19 ± 0.01 h.

Q: What about the Tmax (male, Sprague-Dawley, rat, plasma, po, 0.68 g/kg, Tmax, rat plasma, oral GU extract 0.68 g/kg, n = 6) of the same compound?
A: Its Tmax is 0.08 h.

Q: What about the half-life (male, Sprague-Dawley, rat, plasma, po, 0.68 g/kg, oral GU extract 0.68 g/kg, n = 6) of the same compound?
A: The half-life was 4.41 ± 0.59 h.

Q: What about the AUC(0-inf) (male, Sprague-Dawley, rat, plasma, po, 2.14 g·kg^−1 (extract), AUC(0–∞), rat plasma, oral LJ + GU extract, n = 6) of the same compound?
A: Its AUC(0-inf) is 200 ± 60 ng·h/mL.

Q: What about the MRT last [2] of the same compound?
A: The MRT last was 2.53 ± 0.56 h.

Q: What about the MRT inf [2] of the same compound?
A: The MRT inf was 13.5 ± 11 h.

Q: And the Tmax (male, Sprague-Dawley, rat, plasma, po, 2.14 g·kg^−1 (extract), Tmax, rat plasma, oral LJ + GU extract, n = 6)?
A: The Tmax was 0.56 ± 0.56 h.

Q: And the half-life (male, Sprague-Dawley, rat, plasma, po, 2.14 g·kg^−1 (extract), oral LJ + GU extract, n = 6)?
A: The half-life was 12.2 ± 7.3 h.

Q: And the AUC(0-t) (male, Sprague-Dawley, rat, plasma, po, 2.14 g·kg^−1 extract, rat plasma, oral LJ + GU extract, n = 6)?
A: The AUC(0-t) was 180 ± 60 ng·h/mL.

Q: What about the AUC(0-t) [3] of the same compound?
A: Its AUC(0-t) is 220 ± 80 ng·h/mL.

Q: What about the AUC(0-inf) (male, Sprague-Dawley, rat, plasma, po, 2.43 g/kg, AUC(0–∞), rat plasma, oral AS + GU extract 2.43 g/kg, n = 6) of the same compound?
A: The AUC(0-inf) was 240 ± 80 ng·h/mL.

Q: What about the MRT last [3] of the same compound?
A: The MRT last was 2.3 ± 0.63 h.

Q: What about the MRT inf [3] of the same compound?
A: Its MRT inf is 11.1 ± 8.58 h.

Q: And the Tmax (male, Sprague-Dawley, rat, plasma, po, 2.43 g/kg, Tmax, rat plasma, oral AS + GU extract 2.43 g/kg, n = 6)?
A: The Tmax was 0.6 ± 0.5 h.

Q: What about the half-life (male, Sprague-Dawley, rat, plasma, po, 2.43 g/kg, oral AS + GU extract 2.43 g/kg, n = 6) of the same compound?
A: The half-life was 9.28 ± 5.92 h.

Q: What about the MRT last [4] of the same compound?
A: Its MRT last is 2.48 ± 0.46 h.

Q: What about the MRT inf [4] of the same compound?
A: The MRT inf was 12.4 ± 9.87 h.

Q: What about the Tmax (male, Sprague-Dawley, rat, plasma, po, 3.38 g/kg extract (6.67 g/kg as herbs), Tmax, rat plasma, oral SN + GU extract, n = 6) of the same compound?
A: The Tmax was 0.42 ± 0.53 h.

Q: And the half-life (male, Sprague-Dawley, rat, plasma, po, 3.38 g/kg extract (6.67 g/kg as herbs), oral SN + GU extract, n = 6)?
A: The half-life was 7.81 ± 5.31 h.

Q: And the AUC(0-t) (male, Sprague-Dawley, rat, plasma, po, 3.38 g·kg^−1 (extract), rat plasma, oral SN + GU extract, n = 6)?
A: The AUC(0-t) was 180 ± 50 ng·h/mL.

Q: What about the AUC(0-inf) (male, Sprague-Dawley, rat, plasma, po, 3.38 g·kg^−1 (extract), AUC(0–∞), rat plasma, oral SN + GU extract, n = 6) of the same compound?
A: Its AUC(0-inf) is 210 ± 50 ng·h/mL.

Q: What about the Cmax (male, Sprague-Dawley, rat, plasma, po, 3.38 g·kg^−1 extract, Cmax, rat plasma, oral SN + GU extract, n = 6) of the same compound?
A: The Cmax was 150 ± 70 ng/mL.

Q: And the AUC(0-t) [5]?
A: Its AUC(0-t) is 220 ± 130 ng·h/mL.

Q: And the AUC(0-inf) (male, Sprague-Dawley, rat, plasma, po, 4.01 g·kg^−1 (extract), AUC(0–∞), rat plasma, oral LJ + AS + GU extract, n = 6)?
A: Its AUC(0-inf) is 260 ± 140 ng·h/mL.

Q: What about the Cmax (male, Sprague-Dawley, rat, plasma, po, 4.01 g·kg^−1 (extract), Cmax, rat plasma, oral LJ + AS + GU extract, n = 6) of the same compound?
A: Its Cmax is 210 ± 170 ng/mL.

Q: And the MRT last [5]?
A: Its MRT last is 2.41 ± 0.63 h.

Q: What about the MRT inf [5] of the same compound?
A: Its MRT inf is 16 ± 11.8 h.

Q: What about the Tmax (male, Sprague-Dawley, rat, plasma, po, 4.01 g·kg^−1 (extract), Tmax, rat plasma, oral LJ + AS + GU extract, n = 6) of the same compound?
A: The Tmax was 0.79 ± 0.29 h.

Q: And the half-life (male, Sprague-Dawley, rat, plasma, po, 4.01 g·kg^−1 (extract), oral LJ + AS + GU extract, n = 6)?
A: The half-life was 13.7 ± 4.69 h.

Q: And the AUC(0-t) [6]?
A: The AUC(0-t) was 230 ± 160 ng·h/mL.

Q: And the AUC(0-inf) (male, Sprague-Dawley, rat, plasma, po, 4.73 g/kg, AUC(0–∞), rat plasma, oral LJ + SN + GU extract 4.73 g/kg, n = 6)?
A: The AUC(0-inf) was 260 ± 170 ng·h/mL.

Q: What about the MRT last [6] of the same compound?
A: Its MRT last is 2.5 ± 0.67 h.

Q: What about the MRT inf [6] of the same compound?
A: Its MRT inf is 16.3 ± 12.9 h.

Q: And the Tmax (male, Sprague-Dawley, rat, plasma, po, 4.73 g/kg, Tmax, rat plasma, oral LJ + SN + GU extract 4.73 g/kg, n = 6)?
A: Its Tmax is 0.88 ± 0.31 h.

Q: And the half-life (male, Sprague-Dawley, rat, plasma, po, 4.73 g/kg, oral LJ + SN + GU extract 4.73 g/kg, n = 6)?
A: Its half-life is 13.4 ± 5.15 h.

Q: And the AUC(0-inf) (male, Sprague-Dawley, rat, plasma, po, 8.25 g/kg)?
A: The AUC(0-inf) was 340 ± 210 ng·h/mL.

Q: And the AUC(0-t) [7]?
A: The AUC(0-t) was 290 ± 210 ng·h/mL.

Q: What about the Cmax (male, Sprague-Dawley, rat, plasma, po, 8.25 g/kg, Cmax, rat plasma, oral SYD extract 8.25 g/kg, n = 6) of the same compound?
A: Its Cmax is 210 ± 170 ng/mL.

Q: What about the MRT last [7] of the same compound?
A: Its MRT last is 2.89 ± 0.92 h.

Q: What about the MRT inf [7] of the same compound?
A: Its MRT inf is 11.3 ± 7.16 h.

Q: What about the Tmax (male, Sprague-Dawley, rat, plasma, po, 8.25 g/kg, Tmax, rat plasma, oral SYD extract 8.25 g/kg, n = 6) of the same compound?
A: Its Tmax is 0.88 ± 0.31 h.

Q: And the half-life (male, Sprague-Dawley, rat, plasma, po, 8.25 g/kg, oral SYD extract 8.25 g/kg, n = 6)?
A: The half-life was 13.4 ± 5.59 h.

Q: And the half-life (male, Sprague-Dawley, rat, plasma, po, […], oral SN + AS + GU extract […], n = 6)?
A: Its half-life is 11.6 ± 5.01 h.

Q: What about the Cmax (rat plasma, oral AS + GU extract 2.43 g/kg, n = 6) of the same compound?
A: Its Cmax is 200 ± 130 ng/mL.

Q: And the Cmax (rat plasma, oral LJ + GU extract, n = 6)?
A: The Cmax was 140 ± 70 ng/mL.

Q: What about the Tmax (rat plasma, oral SN + AS + GU extract […], n = 6) of the same compound?
A: The Tmax was 1.00 ± 0.27 h.
